Values of other authors as cited in patent US12023334B2, “Composition including rilpivirine and method for treating tumors or cancer” (APTORUM THERAPEUTICS LIMITED, priority 2019, dated 2024).

Columns and labels:
[1] = tested on: U87 glioblastoma cells; conditions: Journal of Cancer 9(1):117-128, 2018; cited from earlier work
[2] = tested on: A-375 melanoma; conditions: animal experiments (Oncogene 24:3923-3931, 2005); cited from earlier work
[3] = tested on: PC3 prostate cancer cell lines; conditions: animal experiments (Oncogene 24:3923-3931, 2005); cited from earlier work
[4] = tested on: pancreatic cancer cells; conditions: in vitro (PloS ONE 10(6):e0130277, 2015); cited from earlier work

Row | Compound | tumor growth of U87 glioblastoma cells [1] | tumorigenic growth of A-375 melanoma [2] | tumorigenic growth of PC3 prostate cancer cell lines [3] | toxic potential against pancreatic cancer cells [4]
1 | Cc1cc(C)c(Nc2ccnc(Nc3ccc(C#N)cc3)n2)c(C)c1 [Dapivirine] | inhibit tumor growth | – | – | –
2 | O=C1Nc2ccc(Cl)cc2[C@@](C#CC2CC2)(C(F)(F)F)O1 [efavirenz] | – | antagonize tumorigenic growth | antagonize tumorigenic growth | high toxic potential
3 | Cc1ccnc2c1NC(=O)c1cccnc1N2C1CC1 [nevirapine] | – | antagonize tumorigenic growth | antagonize tumorigenic growth | –
